From PubChem BioAssay (NCI)
Several values for one entry are separate records, joined by “and”; a condition that tells them apart may be missing. Equal entries are not always repeated.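 The compound was tested at five concentrations on cells cultured in 96-well plates, with a 48-hour exposure period. GI50 is the concentration that inhibits growth by half. Definition used: TGI = concentration required for complete inhibition of growth.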

Key:
Assay in all cases: NCI-60 cell line screen, 48 h
HT29 colon = system: HT29 colon
NCI-H23 lung = system: NCI-H23 lung
SF-268 CNS = system: SF-268 CNS
CAKI-1 renal = system: CAKI-1 renal
SN12C renal = system: SN12C renal
UO-31 renal = system: UO-31 renal
M14 melanoma = system: M14 melanoma
OVCAR-3 ovarian = system: OVCAR-3 ovarian
HCT-116 colon = system: HCT-116 colon
LOX IMVI melanoma = system: LOX IMVI melanoma
MALME-3M melanoma = system: MALME-3M melanoma
SK-MEL-2 melanoma = system: SK-MEL-2 melanoma
OVCAR-5 ovarian = system: OVCAR-5 ovarian
EKVX NSCLC = system: EKVX NSCLC
UACC-62 melanoma = system: UACC-62 melanoma
SR leukemia = system: SR leukemia
COLO 205 colon = system: COLO 205 colon
SW-620 colon = system: SW-620 colon
SNB-19 CNS = system: SNB-19 CNS
UACC-257 melanoma = system: UACC-257 melanoma
OVCAR-4 ovarian = system: OVCAR-4 ovarian
MOLT-4 leukemia = system: MOLT-4 leukemia
DU-145 prostate = system: DU-145 prostate
A498 renal = system: A498 renal
RXF 393 renal = system: RXF 393 renal
NCI/ADR-RES ovarian = system: NCI/ADR-RES ovarian
NCI-H226 lung = system: NCI-H226 lung
BT-549 breast = system: BT-549 breast
KM12 colon = system: KM12 colon
786-0 renal = system: 786-0 renal
T-47D breast = system: T-47D breast
TK-10 renal = system: TK-10 renal
HOP-62 NSCLC = system: HOP-62 NSCLC
HL-60(TB) leukemia = system: HL-60(TB) leukemia
SK-OV-3 ovarian = system: SK-OV-3 ovarian
MDA-MB-435 = system: MDA-MB-435
HCC-2998 colon = system: HCC-2998 colon
HCT-15 colon = system: HCT-15 colon
PC-3 prostate = system: PC-3 prostate
HOP-92 NSCLC = system: HOP-92 NSCLC
SK-MEL-28 melanoma = system: SK-MEL-28 melanoma
K-562 leukemia = system: K-562 leukemia
SNB-75 CNS = system: SNB-75 CNS
MCF7 breast = system: MCF7 breast
HS 578T breast = system: HS 578T breast
ACHN renal = system: ACHN renal
MDA-MB-231 breast = system: MDA-MB-231 breast
SF-539 CNS = system: SF-539 CNS
MDA-MB-468 breast = system: MDA-MB-468 breast
RPMI-8226 leukemia = system: RPMI-8226 leukemia
OVCAR-8 ovarian = system: OVCAR-8 ovarian
NCI-H522 lung = system: NCI-H522 lung
CCRF-CEM leukemia = system: CCRF-CEM leukemia

SMILES: COc1cc2cc(C(=O)N3C[C@@H](CCl)c4c3cc(OC(=O)N3CCN(C(=O)CCC(=O)N5CCN(C)CC5)[C@@H]5CSSC[C@@H]53)c3ccccc43)[nH]c2c(OC)c1OC
- GI50 (HT29 colon): 0.0579 µM and 0.142 µM
- GI50 (NCI-H23 lung): 0.0103 µM and 0.0186 µM
- TGI (NCI-H23 lung): 0.0505 µM and 0.0887 µM
- GI50 (SF-268 CNS): 0.0583 µM
- TGI (SF-268 CNS): 0.608 µM
- GI50 (CAKI-1 renal): 0.101 µM and 0.172 µM
- TGI (CAKI-1 renal): 1.47 µM and 0.701 µM
- GI50 (SN12C renal): 0.0328 µM
- TGI (SN12C renal): 7.04 µM
- GI50 (UO-31 renal): 0.075 µM
- TGI (UO-31 renal): 2.84 µM
- GI50 (M14 melanoma): 0.0366 µM and 0.124 µM
- TGI (M14 melanoma): 0.118 µM and 0.377 µM
- GI50 (OVCAR-3 ovarian): 0.0539 µM
- TGI (OVCAR-3 ovarian): 0.131 µM
- GI50 (HCT-116 colon): 0.154 µM
- TGI (HCT-116 colon): 11.6 µM
- GI50 (LOX IMVI melanoma): 0.0376 µM and 0.0692 µM
- TGI (LOX IMVI melanoma): 0.114 µM and 0.276 µM
- GI50 (MALME-3M melanoma): 0.0459 µM and 0.134 µM
- TGI (MALME-3M melanoma): 0.102 µM and 0.284 µM
- GI50 (SK-MEL-2 melanoma): 0.0471 µM and 0.0428 µM
- TGI (SK-MEL-2 melanoma): 0.0935 µM and 0.131 µM
- GI50 (OVCAR-5 ovarian): 0.0828 µM
- TGI (OVCAR-5 ovarian): 0.386 µM
- GI50 (EKVX NSCLC): 0.0717 µM and 0.207 µM
- TGI (EKVX NSCLC): 0.403 µM and 1.38 µM
- GI50 (UACC-62 melanoma): 0.0436 µM and 0.136 µM
- TGI (UACC-62 melanoma): 0.158 µM and 0.324 µM
- GI50 (SR leukemia): 0.00622 µM and 0.0195 µM
- GI50 (COLO 205 colon): 0.0494 µM and 0.145 µM
- TGI (COLO 205 colon): 0.133 µM and 0.315 µM
- GI50 (SW-620 colon): 0.0555 µM
- TGI (SW-620 colon): 25 µM
- GI50 (SNB-19 CNS): 0.034 µM and 0.0908 µM
- TGI (SNB-19 CNS): 25 µM and 16 µM
- GI50 (UACC-257 melanoma): 0.131 µM and 0.273 µM
- TGI (UACC-257 melanoma): 0.711 µM and 1.43 µM
- GI50 (OVCAR-4 ovarian): 0.0863 µM
- TGI (OVCAR-4 ovarian): 0.662 µM
- GI50 (MOLT-4 leukemia): 0.0124 µM and 0.0628 µM
- TGI (MOLT-4 leukemia): 25 µM and 4.72 µM
- GI50 (DU-145 prostate): 0.0136 µM and 0.0245 µM
- TGI (DU-145 prostate): 25 µM and 10.2 µM
- GI50 (A498 renal): 0.122 µM and 0.218 µM
- TGI (A498 renal): 1.4 µM and 0.471 µM
- GI50 (RXF 393 renal): 0.0374 µM and 0.0347 µM
- TGI (RXF 393 renal): 0.0748 µM and 0.138 µM
- GI50 (NCI/ADR-RES ovarian): 0.0644 µM
- TGI (NCI/ADR-RES ovarian): 0.268 µM
- GI50 (NCI-H226 lung): 0.453 µM and 0.245 µM
- TGI (NCI-H226 lung): 1.67 µM and 3.18 µM
- GI50 (BT-549 breast): 0.041 µM and 0.144 µM
- TGI (BT-549 breast): 0.132 µM and 0.413 µM
- GI50 (KM12 colon): 0.0747 µM and 0.131 µM
- GI50 (786-0 renal): 0.049 µM
- TGI (786-0 renal): 0.135 µM
- GI50 (T-47D breast): 0.118 µM and 0.229 µM
- TGI (T-47D breast): 25 µM and 19.7 µM
- GI50 (TK-10 renal): 0.663 µM and 1.05 µM
- TGI (TK-10 renal): 25 µM and 22.2 µM
- GI50 (HOP-62 NSCLC): 0.0413 µM
- TGI (HOP-62 NSCLC): 0.231 µM
- GI50 (HL-60(TB) leukemia): 0.053 µM and 0.048 µM
- TGI (HL-60(TB) leukemia): 1.09 µM and 2.39 µM
- GI50 (SK-OV-3 ovarian): 0.0722 µM
- TGI (SK-OV-3 ovarian): 0.374 µM
- GI50 (MDA-MB-435): 0.0466 µM and 0.147 µM
- TGI (MDA-MB-435): 0.102 µM and 0.298 µM
- GI50 (HCC-2998 colon): 0.0287 µM and 0.0542 µM
- TGI (HCC-2998 colon): 0.0685 µM and 0.188 µM
- GI50 (HCT-15 colon): 0.0655 µM and 0.244 µM
- TGI (HCT-15 colon): 1.07 µM and 10.5 µM
- GI50 (PC-3 prostate): 0.0577 µM and 0.479 µM
- TGI (PC-3 prostate): 25 µM and 10.5 µM
- GI50 (HOP-92 NSCLC): 0.0951 µM and 0.178 µM
- TGI (HOP-92 NSCLC): 0.875 µM and 0.752 µM
- GI50 (SK-MEL-28 melanoma): 0.0476 µM and 0.159 µM
- TGI (SK-MEL-28 melanoma): 0.106 µM and 0.333 µM
- GI50 (K-562 leukemia): 0.122 µM and 0.0891 µM
- TGI (K-562 leukemia): 25 µM and 9.07 µM
- GI50 (SNB-75 CNS): 0.0418 µM and 0.0798 µM
- TGI (SNB-75 CNS): 0.148 µM and 0.354 µM
- GI50 (MCF7 breast): 0.0149 µM
- TGI (MCF7 breast): 1.59 µM
- GI50 (HS 578T breast): 0.266 µM and 0.292 µM
- TGI (HS 578T breast): 1.83 µM and 2.45 µM
- GI50 (ACHN renal): 0.0305 µM
- TGI (ACHN renal): 0.0932 µM
- GI50 (MDA-MB-231 breast): 0.064 µM and 0.204 µM
- TGI (MDA-MB-231 breast): 0.16 µM and 0.536 µM
- GI50 (SF-539 CNS): 0.0385 µM and 0.0389 µM
- TGI (SF-539 CNS): 0.0913 µM and 0.151 µM
- GI50 (MDA-MB-468 breast): 0.0373 µM
- TGI (MDA-MB-468 breast): 0.161 µM
- GI50 (RPMI-8226 leukemia): 0.0646 µM and 0.142 µM
- TGI (RPMI-8226 leukemia): 2.72 µM and 13.2 µM
- GI50 (OVCAR-8 ovarian): 0.0425 µM
- TGI (OVCAR-8 ovarian): 0.16 µM
- GI50 (NCI-H522 lung): 0.0435 µM and 0.0554 µM
- TGI (NCI-H522 lung): 0.114 µM and 0.364 µM
- GI50 (CCRF-CEM leukemia): 0.27 µM
- TGI (CCRF-CEM leukemia): > 100 µM
